We go through one compound from patent US20240092741A1, “COMPOSITION FOR PREVENTION OR TREATMENT OF NEUROFIBROMATOSIS TYPE 2 SYNDROME” (PRG S&TECH INC., priority 2021, published 2024).

The subject of one data set is normal fibroblasts. As to the kind of experiment: MTT cell viability assay in normal fibroblasts. The format is cell-based, human. The settings on record: indicated concentrations, 7 days (FIG. 5A). The protocol:
To measure cell viability, MTT (3-(4,5-dimethylthiazol-2-yl)-2,5-diphenyltetrazolium bromide) assay was used. In other words, the cells were seeded in 96-well plates and treated with the indicated chemicals for a predetermined time. After removing the medium, 200 μl of MTT solution (0.5 mg/ml) dissolved in PBS was added to each well. Plates were then cultured at 37° C. for 4 hours, the MTT solution was removed, the precipitated substances were dissolved using a solution (DMSO:ethanol=1:1), and an amount of formazan dye produced was quantified by measuring the absorbance at 560 nm using an ELISA microplate reader (Thermo Fisher Scientific, MA, USA).
For orientation: Tetrazolium assays rely on reduction of a dye to a coloured formazan, in cell work by metabolically active cells.

Another data set has as its system Erk. As to the kind of experiment: Erk activation by Western blotting in HEI-193 cells. The format is cell-based, human. The settings on record: 24 h (FIG. 6A). The protocol: (§1) Cells were harvested and lysed using RIPA buffer [50 mM Tris-Cl, pH 7.5, 150 mM NaCl, 1% NP-40, 0.1% SDS, and 10% sodium deoxycholate] to examine cellular signaling. Protein concentrations in samples were measured using Bio-Rad (Hercules, CA, USA) protein assay kits and BSA standards. The samples (20 μg protein per lane) were separated by sodium dodecyl sulfate-polyacrylamide gel electrophoresis (SDS-PAGE), transferred to Immobilon-P^SQ transfer membranes (Millipore Corp., MA, USA), which were then cultured with 3% skim milk-containing TBS-T buffer (Tris-HCl-based buffer containing 20 mM Tris pH 7.6, 150 mM NaCl, and 0.05% Tween 20) for 1 hour at room temperature and then reacted with primary antibody in TBS-T overnight at 4° C. The membranes were then washed and reacted with secondary horseradish peroxidase (HRP)-conjugated antibodies [goat anti-mouse, goat anti-rabbit, and mouse anti-goat antibodies (Pierce, Thermo Fisher Scientific, Inc., Rockford, IL, USA)] in TBS-T at room temperature for 2 hours. The blots were detected using an HRP-conjugated secondary antibody using ECL kit (Intron, Seoul, Korea).
On the technique in general: A western blot detects proteins with antibodies after separation by electrophoresis.

Data set [1] deals with TGF-β signaling. As to the kind of experiment: Smad2/3 phosphorylation after TGF-β1 in HEI-193 cells. The format is cell-based, human. The settings on record: 10 μM, TGF-β1 1 ng/ml (FIGS. 16A, 16B). How it is done:
as §1

The test system of data set [2] is TGF-β signaling. As to the kind of experiment: 3TP-luciferase assay in HEI-193 cells. The data set is classed as cell-based, human. The settings on record: high concentrations, TGF-β1 2 ng/ml (FIG. 8D). How it is done:
To estimate the transcriptional activity of TGF-β signaling, 3TP-Luc vectors were transfected into cells for 24 hours, and the cells were treated with the indicated chemicals. After washing with wash buffer (Promega, Wisconsin, USA), the cells were lysed using lysis buffer (Promega, Wisconsin, USA). Luciferase activity was measured using a luminometer (MicroDigital, Gyeonggi-do, Korea).

A further data set has as its system RKIP. As to the kind of experiment: Immunoblotting of transfected wild-type and mutant RKIP. The settings on record: 10 μM, 24 h (FIG. 8E). The format is cell-based. How it is done: pCMV RKIP-HA was provided by Keum G (David Geffen School of Medicine at University of California, Los Angeles, CA, USA). pCMV RKIP-T101A-HA and pCMV RKIP-T101D-HA were generated by Dr. J. H. Hwang (Pusan National University). pcDNA3 NF2-FLAG, pRK5 TGF beta type 1 receptor-FLAG, and TGF beta type 2 receptor-HA were obtained from Addgene (Cambridge, MA, USA). Transfection was performed using the Jetpei transfection agent (Polyplus New York, USA) for mammalian expression of these vectors.
In other words, cells were seeded at a density of 2×10^5 cells/well in 12-well plates and cultured overnight before transfection. The vector (1.5 μg) was mixed with 1.5 μl of Jetpei reagent dissolved in 150 mM NaCl solution. The mixture was reacted at room temperature for 15 minutes, and then added to the cells. After 3 hours, the serum-free medium 15 was replaced with medium supplemented with 10% FBS.
Cells were harvested and lysed using RIPA buffer [50 mM Tris-Cl, pH 7.5, 150 mM NaCl, 1% NP-40, 0.1% SDS, and 10% sodium deoxycholate] to examine cellular signaling. Protein concentrations in samples were measured using Bio-Rad (Hercules, CA, USA) protein assay kits and BSA standards. […] The blots were detected using an HRP-conjugated secondary antibody using ECL kit (Intron, Seoul, Korea).

The test system of data set [3] is HEI-193 cells. As to the kind of experiment: RT-PCR gene expression in HEI-193 cells. The data set is classed as cell-based, human. How it is done: For RT-PCR, total cellular RNA was extracted using an RNA extraction kit (Qiagen). Gene expression analysis was performed using cDNA synthesized from total RNA with MMLV RT (Invitrogen, Carlsbad, USA) and random hexamer. PCR from genomic DNA was performed using DiaStar Taq DNA polymerase (SolGent, Daejeon, Korea), and gene expression analysis was performed using the following specific primers: […]

Data set [4] concerns HEI-193 cells. As to the kind of experiment: Western blotting of marker proteins in HEI-193 cells. The data set is classed as cell-based, human. The settings on record: HEI-193 cells. The protocol:
as §1

Data set [5] relates to HEI-193 cells. Put plainly: Tumorsphere formation assay, HEI-193 cells. The format is cell-based, human. The settings on record: 10 μM. The protocol: (§2) For tumorsphere formation assay, Hei-193 or mouse schwannoma cells (3×10^6 cells/plate) were cultured in DMEM/F12 medium (supplemented with 2% B27 and 40 ng/ml bFGF) and added with the indicated chemicals on non-coated plates for indicated days.

The test system of the next data set is mouse schwannoma cells. As to the kind of experiment: Tumorsphere formation assay, mouse schwannoma cells. The format is cell-based. The settings on record: 10 μM. The protocol:
as §2

Another data set relates to SOX2. Put plainly: SOX2 localization by IF and cell fractionation in HEI-193 cells. The data set is classed as cell-based, human. The settings on record: 2 μM, 24 h, IF and cell fractionation (FIGS. 15C, 15D). The protocol: Cells were seeded on cover glass, washed with PBS, fixed with 4% paraformaldehyde (PFA) for 30 minutes at room temperature, and then permeabilized with 0.2% Triton X-100 at room temperature for 5 minutes. After treatment with blocking buffer [3% goat serum diluted in PBS] for 1 hour, cells were reacted with the specified antibody in the blocking buffer overnight at 4° C. Finally, the cells were reacted with secondary antibodies conjugated with FITC or rhodamine at 4° C. for 7 hours. The nuclei were stained with DAPI at room temperature for 10 minutes. After the cells were washed 3 times with PBS, the cover glass was mounted with a mounting solution (H-5501, Vector Laboratories, Cambridgeshire, UK) and immunofluorescence signals were detected using a fluorescence microscopy (Zeiss, Jena, Germany).

Where [6] appears, read: tumorspheres, 10th day, immunoblotting (FIGS. 15B, 14E).

For the compound `CCN(CC)CCOc1ccc(-c2nnn(Cc3ccc(OC)cc3)c2N)cc1` [PRG-N-01, 4-(4-(2-(diethylamino)ethoxy)phenyl)-1-(4-methoxybenzyl)-1H-1,2,3-triazol-5-amino], the “toxicity in normal fibroblasts (MTT)” value in the data set on normal fibroblasts was “without causing toxicity”. In addition, in the data set on Erk, the Erk activation result is reported as “inhibited Erk activation”. In the data set with TGF-β signaling [1], the “duration of Smad 2/3 phosphorylation (canonical TGF-β signaling)” value was “prolonged”. For the same compound, the “TGF-β signaling (3TP-luciferase activity)” value in the data set with TGF-β signaling [2] is “did not inhibit TGF-β signaling even at high concentrations”. Also, the “wild-type RKIP expression” value in the data set with RKIP (HEI-193 and mouse schwannoma cells transfected with WT RKIP) is “induced wild-type RKIP expression”. In addition, in the data set on RKIP (HEI-193 and mouse schwannoma cells transfected with mutants), the “expression of RKIP mutants (T101A stable form, T101D unstable form)” value is reported as “did not alter the expression”. The “expression of cell cycle-related genes (CDK1, CDK4, CCNB1, PLK4)” value in the data set on HEI-193 cells [3] (RT-PCR (FIG. 12D)) was “decreased”. Also, in the data set on HEI-193 cells [3] (RT-PCR (FIGS. 12D, 13C)), the “expression of schwann cell markers (PLP, MBP, GFAP MPZ, PMP22, SOX10)” value is “increased”. Further, the “expression of other stem cell factors (c-Myc, Nanog, Oct4)” value in the data set with HEI-193 cells [4] (4 days, Western blot (FIG. 14A)) is listed as “not altered”. For the same compound, the “expression of SOX2 (stem cell marker) at the protein level” value in the data set with HEI-193 cells [4] (Western blot (FIG. 12E)) is recorded as “reduced”. The “tumorsphere size and number” value was “reduced the tumorsphere size as well as the number of tumorsphere” with HEI-193 cells [5] (HEI-193 cells, 10th day) and “reduced the tumorsphere size as well as the number of tumorsphere” in the data set on mouse schwannoma cells (10th day). Moreover, the tumorsphere formation result is recorded as “obviously inhibited tumorsphere formation” with HEI-193 cells [5] (HEI-193 cells, DMEM/F12 medium) and “obviously inhibited tumorsphere formation” in the data set on mouse schwannoma cells (DMEM/F12 medium). Besides, in the data set with HEI-193 cells [5] (setting [6]), the “SOX10 expression in tumorspheres” value was “obviously increased”. In addition, in the data set with HEI-193 cells [5] (setting [6]), the “expression of stem cell factors (SOX2, c-Myc, Nanog, Oct4) in tumorspheres” value is “downregulated to undetectable levels”. The “localization of nuclear SOX2” value in the data set on SOX2 was “moved to the cytosol”.
